These results are taken from patent US10131652B2, “Pyrimidinyloxy benzene derivatives as herbicides” (E. I. DU PONT DE NEMOURS AND COMPANY, priority 2014, dated 2018).

Data set [1] relates to water seeded rice seedlings (Indica rice, Oryza sativa). As to the kind of experiment: Test G flooded paddy rice/weed plant response. Type of data set: in vivo. The settings on record: Flood, 21 days, scale 0 to 100 (0 no effect, 100 complete control). An excerpt:
(§1) Three plastic pots (ca. 16-cm diameter) per rate were partially filled with sterilized Tama silt loam soil comprising a 35:50:15 ratio of sand, silt and clay and 2.6% organic matter. Separate plantings for each of the three pots were as follows. Seeds from the U.S. of monochoria (Monochoria vaginalis), small-flower umbrella sedge (Cyperus difformis), hardstem bulrush (Scirpus juncoides), and redstem (purple redstem, Ammannia coccinea), were planted into one 16-cm pot for each rate. Seeds from the U.S. of rice flatsedge (Cyperus iria), bearded sprangletop (Leptochloa fascicularis), one stand of 9 or 10 water seeded rice seedlings (Indica rice, Oryza sativa), and two stands of 3 or 4 transplanted rice seedlings (Oryza sativa cv. ‘Japonica—M202’) were planted into one 16-cm pot for each rate. Seeds from the U.S. of bamyardgrass (Echinochloa crus-galli), and late watergrass (Echinochloa oryzicola) were planted into one 16-cm pot for each rate. Plantings were sequential so that crop and weed species were at the 2.0 to 2.5-leaf stage at time of treatment.
(§2) Potted plants were grown in a greenhouse with day/night temperature settings of 30/27° C., and supplemental balanced lighting was provided to maintain a 16-hour photoperiod. Test pots were maintained in the greenhouse until test completion.
(§3) At time of treatment, test pots were flooded to 3 cm above the soil surface, treated by application of test compounds directly to the paddy water, and then maintained at that water depth for the duration of the test. Effects of treatments on rice and weeds were visually evaluated by comparison to untreated controls after 21 days. Plant response ratings, summarized in Table G, are based on a scale of 0 to 100 where 0 is no effect and 100 is complete control. A dash (-) response means no test result.

The test system of data set [2] is hardstem bulrush (Scirpus juncoides). The data set is described as follows: Test G flooded paddy rice/weed plant response. It is filed as in vivo. The settings on record: Flood, 21 days, scale 0 to 100 (0 no effect, 100 complete control).
Description: as §1, §2, §3

The test system of data set [3] is monochoria (Monochoria vaginalis). As to the kind of experiment: Test G flooded paddy rice/weed plant response. Type of data set: in vivo. The settings on record: Flood, 21 days, scale 0 to 100 (0 no effect, 100 complete control).
Description: as §1, §2, §3

In data set [4] the test system is cocklebur (common cocklebur, Xanthium strumarium). As to the kind of experiment: Test F pre-/postemergence plant response. As to conditions: scale 0 to 100. It is filed as in vivo. The gist of the method: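 Seeds were sown in silt loam soil and sprayed preemergence; separately, plants at the 1- to 4-leaf stage (2 to 18 cm) received postemergence sprays. Test chemicals were in a non-phytotoxic solvent mixture with surfactant. After 14 to 21 days in a greenhouse, injury was visually rated 0 (no effect) to 100 (complete control) against untreated controls.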

Data set [5] deals with Russian thistle (Salsola iberica). The data set is described as follows: Test E pre-/postemergence plant response. It is filed as in vivo. The settings on record: scale 0 to 100. An outline of the steps:
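Pre-emergence: seeds sown in silt loam soil and sprayed with test chemicals in a non-phytotoxic solvent/surfactant mix. Post-emergence: plants at 2–18 cm (1- to 4-leaf stage) in peat/vermiculite medium treated with the same formulation. Visual rating versus controls after 7–21 days, 0 (no effect) to 100 (complete control).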

Turning to `FC(F)c1cc(-c2ccccc2Oc2ncc(Cl)cn2)no1` [Compound 35, 5-chloro-2-[2-[5-(difluoromethyl)-3-isoxazolyl]phenoxy]pyrimidine], the “Plant response rating, Rice, Water Seeded” value in data set [1] (32 g ai/ha) is listed as 60; in data set [1] (64 g ai/ha), 70; in data set [1] (125 g ai/ha), 100; in data set [1] (250 g ai/ha), 100. Also, the “Plant response rating, Bulrush, Hardstem” value in data set [2] (32 g ai/ha) worked out at 0; in data set [2] (64 g ai/ha), 95; in data set [2] (125 g ai/ha) it was 100; in data set [2] (250 g ai/ha), 100. The “Plant response rating, Monochoria” value came to 98 in data set [3] (32 g ai/ha), 100 in data set [3] (64 g ai/ha), 100 in data set [3] (125 g ai/ha) and 100 in data set [3] (250 g ai/ha). Besides, the “Plant response rating, Cocklebur” value in data set [4] (31 g ai/ha Preemergence) and in data set [4] (125 g ai/ha Preemergence) was 0 in each case.

`Fc1cccc(Oc2ncc(Cl)cn2)c1-c1cc(C(F)F)on1` [Compound 55, 5-chloro-2-[2-[5-(difluoromethyl)-3-isoxazolyl]-3-fluorophenoxy]pyrimidine]: the “Plant response rating, Rice, Water Seeded” value came out at 45 in data set [1] (32 g ai/ha), 100 in data set [1] (64 g ai/ha), 100 in data set [1] (125 g ai/ha) and 100 in data set [1] (250 g ai/ha). In addition, the “Plant response rating, Bulrush, Hardstem” value in data set [2] (32 g ai/ha) amounted to 80; in data set [2] (64 g ai/ha), 100; in data set [2] (125 g ai/ha) it was 100; in data set [2] (250 g ai/ha), 100. Also, the “Plant response rating, Monochoria” value in data set [3] (32 g ai/ha), in data set [3] (64 g ai/ha), in data set [3] (125 g ai/ha) and in data set [3] (250 g ai/ha) was 100 in each case.

A word on the melting point: it is the temperature of the solid-liquid transition. `FC(F)c1cc(-c2ccccc2Oc2ncc(Br)cn2)no1` [Compound 62, 5-bromo-2-[2-[5-(difluoromethyl)-3-isoxazolyl]phenoxy]pyrimidine]: the melting point lay in the range of 89 to 93 °C.

As for `Fc1cccc(Oc2ncc(Cl)cn2)c1-c1cc(C(F)F)no1` [Compound 144, 5-chloro-2-[2-[3-(difluoromethyl)-5-isoxazolyl]-3-fluorophenoxy]pyrimidine], the “Plant response rating, Russian Thistle” value turned out to be 85 in data set [5] (16 g ai/ha Postemergence); 15 in data set [5] (16 g ai/ha Preemergence); 90 in data set [5] (31 g ai/ha Postemergence); 65 in data set [5] (31 g ai/ha Preemergence); 95 in data set [5] (62 g ai/ha Postemergence); 100 in data set [5] (62 g ai/ha Preemergence). Besides, the results for the “Plant response rating, Russian Thistle” value in data set [5] (125 g ai/ha Postemergence) and in data set [5] (125 g ai/ha Preemergence) were 98 and 100, respectively.

Consider `Fc1cccc(Oc2ncc(Br)cn2)c1-c1cc(C(F)F)no1` [Compound 145, 5-bromo-2-[2-[3-(difluoromethyl)-5-isoxazolyl]-3-fluorophenoxy]pyrimidine], for which the “Plant response rating, Russian Thistle” value in data set [5] (16 g ai/ha Postemergence) is recorded as 80; in data set [5] (16 g ai/ha Preemergence), 0; in data set [5] (31 g ai/ha Postemergence) it was 85; in data set [5] (31 g ai/ha Preemergence), 10; in data set [5] (62 g ai/ha Postemergence), 90; in data set [5] (62 g ai/ha Preemergence), 60. Further, the “Plant response rating, Russian Thistle” value in data set [5] (125 g ai/ha Postemergence) and in data set [5] (125 g ai/ha Preemergence) was 100 in each case.
